Results published in US20250230193A1, “CYCLIC COMPOUND HAVING SELECTIVE KRAS INHIBITORY EFFECT ON HRAS AND NRAS” (CHUGAI SEIYAKU KABUSHIKI KAISHA, priority 2022, published 2025).
Where a SMILES comes first, the peptide text is derived from it. Bridges are numbered along the chain shown (N, C = ends). [ ]: non-standard residue; d: D form. The star is where a group is joined. hPhe(3-Cl-4-CF3) = N[C@@H](CCc1ccc(C(F)(F)F)c(Cl)c1)C(=O)O; NPrPhe(4-CF3) = CCCN[C@@H](Cc1ccc(C(F)(F)F)cc1)C(=O)O; Pro(4-spirocPr) = O=C(O)[C@@H]1CC2(CC2)CN1; Abu(4,4,4-F3) = N[C@@H](CC(F)(F)F)C(=O)O; Morpholine(3S-CO) = O=C(O)[C@@H]1COCCN1; Pip(4,4-F2) = O=C(O)[C@@H]1CC(F)(F)CCN1; NMeGly(cPent) = CN[C@H](C(=O)O)C1CCCC1; Gly(cPent) = N[C@H](C(=O)O)C1CCCC1; Gly(cBu) = N[C@H](C(=O)O)C1CCC1; NMeD = CN[C@@H](CC(=O)O)C(=O)O; NMeL = CN[C@@H](CC(C)C)C(=O)O; hPip = O=C(O)[C@@H]1CCCCCN1; Pip = O=C(O)[C@@H]1CCCCN1; Morpholide = C1CN(*)CCO1; Ac5c = NC1(C(=O)O)CCCC1; Aze = O=C(O)[C@@H]1CCN1; Abu = CC[C@H](N)C(=O)O; NPrGly = CCCNCC(=O)O; NEtG = CCNCC(=O)O; Sar = CNCC(=O)O

What was measured:
[1] = target: GDP-bound HRAS wild-type protein (Homo sapiens, UniProt P01112); assay: Binding to HRAS by surface plasmon resonance (SPR), Single Cycle Kinetics; details: KD ratio HRAS/KRAS, SPR
GDP-bound HRAS wild-type protein, sequence (P01112 whole entry): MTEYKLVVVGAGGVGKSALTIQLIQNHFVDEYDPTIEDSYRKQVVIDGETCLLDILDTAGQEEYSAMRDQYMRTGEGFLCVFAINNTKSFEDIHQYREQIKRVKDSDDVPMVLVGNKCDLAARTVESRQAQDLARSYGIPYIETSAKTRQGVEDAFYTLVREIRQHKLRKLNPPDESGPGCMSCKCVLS

[2] = target: GDP-bound NRAS wild-type protein (Homo sapiens, UniProt P01111); assay: Binding to NRAS by surface plasmon resonance (SPR), Single Cycle Kinetics; details: KD ratio NRAS/KRAS, SPR
GDP-bound NRAS wild-type protein, sequence (P01111 whole entry): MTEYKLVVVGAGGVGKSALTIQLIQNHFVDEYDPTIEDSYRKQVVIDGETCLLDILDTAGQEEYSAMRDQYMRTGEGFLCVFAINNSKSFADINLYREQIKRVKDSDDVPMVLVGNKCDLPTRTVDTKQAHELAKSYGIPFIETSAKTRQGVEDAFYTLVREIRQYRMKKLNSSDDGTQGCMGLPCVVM

Compound	HRAS/KRAS (ratio of KD for GDP-bound HRAS wild-type to KD for KRAS) [1]	NRAS/KRAS (ratio of KD for GDP-bound NRAS wild-type to KD for KRAS) [2]
CCCN1C(=O)CN(C)C(=O)CN(CC)C(=O)[C@H]([C@@H](C)CC)NC(=O)[C@H](CC(C)C)N(C)C(=O)C[C@@H](C(=O)N2CCOCC2)N(C)C(=O)[C@H](C2CCCC2)N(C)C(=O)C2(CCCC2)NC(=O)[C@@H]2CCCCN2C(=O)[C@H](CCc2ccc(C(F)(F)F)c(Cl)c2)NC(=O)CN(C)C(=O)[C@@H]1Cc1ccc(C(F)(F)F)cc1 [PP0297] ([NMeL]I[NEtG][Sar][NPrPhe(4-CF3)][Sar][hPhe(3-Cl-4-CF3)][Pip][Ac5c][NMeGly(cPent)][NMeD]-Morpholide; lactam N-11)	C (A compound having a KD ratio of 0.1 or more and less than 3 is denoted as C)	B (a compound having 3 or more and less than 10 is denoted as B)
CCCN1C(=O)CN(C)C(=O)CN(CC)C(=O)[C@H]([C@@H](C)CC)NC(=O)[C@H](CC(C)C)N(C)C(=O)C[C@@H](C(=O)N2CCOCC2)N(C)C(=O)[C@H](C2CCCC2)N(C)C(=O)C2(CCCC2)NC(=O)[C@@H]2CC(F)(F)CCN2C(=O)[C@H](CCc2ccc(C(F)(F)F)c(Cl)c2)NC(=O)CN(C)C(=O)[C@@H]1Cc1ccc(C(F)(F)F)cc1 [PP0298] ([NMeL]I[NEtG][Sar][NPrPhe(4-CF3)][Sar][hPhe(3-Cl-4-CF3)][Pip(4,4-F2)][Ac5c][NMeGly(cPent)][NMeD]-Morpholide; lactam N-11)	C (A compound having a KD ratio of 0.1 or more and less than 3 is denoted as C)	B (a compound having 3 or more and less than 10 is denoted as B)
CCCN1C(=O)CN(C)C(=O)CN(CC)C(=O)[C@H]([C@@H](C)CC)NC(=O)[C@H](CC(C)C)N(C)C(=O)C[C@@H](C(=O)N2CCOCC2)N(C)C(=O)[C@H](C2CCCC2)N(C)C(=O)C2(CCCC2)NC(=O)[C@@H]2COCCN2C(=O)[C@H](CCc2ccc(C(F)(F)F)c(Cl)c2)NC(=O)CN(C)C(=O)[C@@H]1Cc1ccc(C(F)(F)F)cc1 [PP0299] ([NMeL]I[NEtG][Sar][NPrPhe(4-CF3)][Sar][hPhe(3-Cl-4-CF3)][Morpholine(3S-CO)][Ac5c][NMeGly(cPent)][NMeD]-Morpholide; lactam N-11)	B (a compound having 3 or more and less than 10 is denoted as B)	B (a compound having 3 or more and less than 10 is denoted as B)
CCCN1C(=O)CN(C)C(=O)CN(CC)C(=O)[C@H]([C@@H](C)CC)NC(=O)[C@H](CC(C)C)N(C)C(=O)C[C@@H](C(=O)N2CCOCC2)N(C)C(=O)[C@H](C2CCCC2)N(C)C(=O)C2(CCCC2)NC(=O)CN(C)C(=O)[C@H](CCc2ccc(C(F)(F)F)c(Cl)c2)NC(=O)CN(C)C(=O)[C@@H]1Cc1ccc(C(F)(F)F)cc1 [PP0300] ([NMeL]I[NEtG][Sar][NPrPhe(4-CF3)][Sar][hPhe(3-Cl-4-CF3)][Sar][Ac5c][NMeGly(cPent)][NMeD]-Morpholide; lactam N-11)	C (A compound having a KD ratio of 0.1 or more and less than 3 is denoted as C)	B (a compound having 3 or more and less than 10 is denoted as B)
CCCN1CC(=O)NC2(CCCC2)C(=O)N(C)[C@@H](C2CCCC2)C(=O)N(C)[C@H](C(=O)N2CCOCC2)CC(=O)N(C)[C@@H](CC(C)C)C(=O)N[C@@H]([C@@H](C)CC)C(=O)N(CC)CC(=O)N(C)CC(=O)N(CCC)[C@@H](Cc2ccc(C(F)(F)F)cc2)C(=O)N(C)CC(=O)N[C@@H](CCc2ccc(C(F)(F)F)c(Cl)c2)C1=O [PP0301] ([NMeL]I[NEtG][Sar][NPrPhe(4-CF3)][Sar][hPhe(3-Cl-4-CF3)][NPrGly][Ac5c][NMeGly(cPent)][NMeD]-Morpholide; lactam N-11)	C (A compound having a KD ratio of 0.1 or more and less than 3 is denoted as C)	B (a compound having 3 or more and less than 10 is denoted as B)
CCCN1C(=O)CN(C)C(=O)[C@@H]2CCN2C(=O)[C@H]([C@@H](C)CC)NC(=O)[C@@H]2CCCCCN2C(=O)C[C@@H](C(=O)N2CCOCC2)N(C)C(=O)[C@H](C2CCCC2)N(C)C(=O)C2(CCCC2)NC(=O)[C@@H]2CCCN2C(=O)[C@H](CCc2ccc(C(F)(F)F)c(Cl)c2)NC(=O)CN(C)C(=O)[C@@H]1Cc1ccc(C(F)(F)F)cc1 [PP0302] ([hPip]I[Aze][Sar][NPrPhe(4-CF3)][Sar][hPhe(3-Cl-4-CF3)]P[Ac5c][NMeGly(cPent)][NMeD]-Morpholide; lactam N-11)	C (A compound having a KD ratio of 0.1 or more and less than 3 is denoted as C)	B (a compound having 3 or more and less than 10 is denoted as B)
CCCN1C(=O)CN(C)C(=O)[C@@H]2CCN2C(=O)[C@H](CC)NC(=O)[C@H](CC(C)C)N(C)C(=O)C[C@@H](C(=O)N2CCOCC2)N(C)C(=O)[C@H](C2CCCC2)N(C)C(=O)C2(CCCC2)NC(=O)[C@@H]2CCCN2C(=O)[C@H](CCc2ccc(C(F)(F)F)c(Cl)c2)NC(=O)CN(C)C(=O)[C@@H]1Cc1ccc(C(F)(F)F)cc1 [PP0303] ([NMeL][Abu][Aze][Sar][NPrPhe(4-CF3)][Sar][hPhe(3-Cl-4-CF3)]P[Ac5c][NMeGly(cPent)][NMeD]-Morpholide; lactam N-11)	B (a compound having 3 or more and less than 10 is denoted as B)	B (a compound having 3 or more and less than 10 is denoted as B)
CCCN1C(=O)CN(C)C(=O)[C@@H]2CCN2C(=O)[C@H](CC(F)(F)F)NC(=O)[C@H](CC(C)C)N(C)C(=O)C[C@@H](C(=O)N2CCOCC2)N(C)C(=O)[C@H](C2CCCC2)N(C)C(=O)C2(CCCC2)NC(=O)[C@@H]2CCCN2C(=O)[C@H](CCc2ccc(C(F)(F)F)c(Cl)c2)NC(=O)CN(C)C(=O)[C@@H]1Cc1ccc(C(F)(F)F)cc1 [PP0304] ([NMeL][Abu(4,4,4-F3)][Aze][Sar][NPrPhe(4-CF3)][Sar][hPhe(3-Cl-4-CF3)]P[Ac5c][NMeGly(cPent)][NMeD]-Morpholide; lactam N-11)	B (a compound having 3 or more and less than 10 is denoted as B)	B (a compound having 3 or more and less than 10 is denoted as B)
CCCN1C(=O)CN(C)C(=O)[C@@H]2CCN2C(=O)[C@H](C2CCC2)NC(=O)[C@H](CC(C)C)N(C)C(=O)C[C@@H](C(=O)N2CCOCC2)N(C)C(=O)[C@H](C2CCCC2)N(C)C(=O)C2(CCCC2)NC(=O)[C@@H]2CCCN2C(=O)[C@H](CCc2ccc(C(F)(F)F)c(Cl)c2)NC(=O)CN(C)C(=O)[C@@H]1Cc1ccc(C(F)(F)F)cc1 [PP0305] ([NMeL][Gly(cBu)][Aze][Sar][NPrPhe(4-CF3)][Sar][hPhe(3-Cl-4-CF3)]P[Ac5c][NMeGly(cPent)][NMeD]-Morpholide; lactam N-11)	C (A compound having a KD ratio of 0.1 or more and less than 3 is denoted as C)	B (a compound having 3 or more and less than 10 is denoted as B)
CCCN1C(=O)CN(C)C(=O)[C@@H]2CCN2C(=O)[C@H](C2CCCC2)NC(=O)[C@H](CC(C)C)N(C)C(=O)C[C@@H](C(=O)N2CCOCC2)N(C)C(=O)[C@H](C2CCCC2)N(C)C(=O)C2(CCCC2)NC(=O)[C@@H]2CCCN2C(=O)[C@H](CCc2ccc(C(F)(F)F)c(Cl)c2)NC(=O)CN(C)C(=O)[C@@H]1Cc1ccc(C(F)(F)F)cc1 [PP0306] ([NMeL][Gly(cPent)][Aze][Sar][NPrPhe(4-CF3)][Sar][hPhe(3-Cl-4-CF3)]P[Ac5c][NMeGly(cPent)][NMeD]-Morpholide; lactam N-11)	B (a compound having 3 or more and less than 10 is denoted as B)	B (a compound having 3 or more and less than 10 is denoted as B)
CCCN1C(=O)CN(C)C(=O)[C@@H]2CCN2C(=O)[C@H]([C@@H](C)CC)NC(=O)[C@H](CC(C)C)N(C)C(=O)C[C@@H](C(=O)N2CCOCC2)N(C)C(=O)[C@H](C2CCCC2)N(C)C(=O)C2(CCCC2)NC(=O)[C@@H]2CCN2C(=O)[C@H](CCc2ccc(C(F)(F)F)c(Cl)c2)NC(=O)CN(C)C(=O)[C@@H]1Cc1ccc(C(F)(F)F)cc1 [PP0307] ([NMeL]I[Aze][Sar][NPrPhe(4-CF3)][Sar][hPhe(3-Cl-4-CF3)][Aze][Ac5c][NMeGly(cPent)][NMeD]-Morpholide; lactam N-11)	B (a compound having 3 or more and less than 10 is denoted as B)	B (a compound having 3 or more and less than 10 is denoted as B)
CCCN1C(=O)CN(C)C(=O)[C@@H]2CCN2C(=O)[C@H]([C@@H](C)CC)NC(=O)[C@H](CC(C)C)N(C)C(=O)C[C@@H](C(=O)N2CCOCC2)N(C)C(=O)[C@H](C2CCCC2)N(C)C(=O)C2(CCCC2)NC(=O)[C@@H]2CC3(CC3)CN2C(=O)[C@H](CCc2ccc(C(F)(F)F)c(Cl)c2)NC(=O)CN(C)C(=O)[C@@H]1Cc1ccc(C(F)(F)F)cc1 [PP0308] ([NMeL]I[Aze][Sar][NPrPhe(4-CF3)][Sar][hPhe(3-Cl-4-CF3)][Pro(4-spirocPr)][Ac5c][NMeGly(cPent)][NMeD]-Morpholide; lactam N-11)	B (a compound having 3 or more and less than 10 is denoted as B)	B (a compound having 3 or more and less than 10 is denoted as B)
